Source: patent US6472348B1, “Pyridone derivatives and herbicides” (Kumiai Chemical Industry Co., Ltd., priority 1996, dated 2002)

Key:
pale smartweed (Po) [1] = test: Test Example 7: crop plant selectivity by upland field soil treatment (corn), herbicidal effects; type: in vivo; design: scale not given here; conditions: dose 6.3 g ai/10a, 21st day after application
Protocol: (§1) (Test on Crop Plant Selectivity by Upland Field Soil Treatment)
(§2) In a plastic pot (surface area: 600 cm^2) filled with sand, corn (Ze), green foxtail (Se), pale smartweed (Po), slender amaranth (Am), common lambsquarters (Ch) and China jute (Ab) were sown and covered with soil. […] The plants were then cultured in a green house, and the evaluation of the herbicidal effects and phytotoxicity was conducted on the 21st day after the application in accordance with the standards as identified in Table 47.

China jute (Ab) [2] = test: as above; type: in vivo; design: scale not given here; conditions: dose 6.3 g ai/10a, 21st day after application
Protocol: as §1, §2

green foxtail (Se) [3] = test: as above; type: in vivo; design: scale not given here; conditions: dose 6.3 g ai/10a, 21st day after application
Protocol: as §1, §2

slender amaranth (Am) [4] = test: as above; type: in vivo; design: scale not given here; conditions: dose 6.3 g ai/10a, 21st day after application
Protocol: as §1, §2

[5] = tested on: common lambsquarters (Ch); test: as above; type: in vivo; design: scale not given here; conditions: dose 6.3 g ai/10a, 21st day after application
Protocol: as §1, §2

pale smartweed (Po) [6] = test: Test Example 4: crop plant selectivity by upland field soil treatment (cotton), herbicidal effects; type: in vivo; design: scale not given here; conditions: dose 6.3 g ai/10 a, evaluated 21st day after application
Protocol: as §1
(§3) In a plastic pot (surface area: 600 cm^2) filled with sand, cotton (Go), Diaitaria ciliaris (Di), green foxtail (Se), pale smartweed (Po), slender amaranth (Am), common lambsquarters (Ch) and China jute (Ab) were sown and covered with soil. […] The plants were then cultured in a green house, and the evaluation of the herbicidal effects and phytotoxicity was conducted on the 21st day after the application in accordance with the standards as identified in Table 47. Symbol—represents “not tested”.

China jute (Ab) [7] = test: as above; type: in vivo; design: scale not given here; conditions: dose 6.3 g ai/10 a, evaluated 21st day after application
Protocol: as §1, §3

green foxtail (Se) [8] = test: as above; type: in vivo; design: scale not given here; conditions: dose 6.3 g ai/10 a, evaluated 21st day after application
Protocol: as §1, §3

slender amaranth (Am) [9] = test: as above; type: in vivo; design: scale not given here; conditions: dose 6.3 g ai/10 a, evaluated 21st day after application
Protocol: as §1, §3

[10] = tested on: common lambsquarters (Ch); test: as above; type: in vivo; design: scale not given here; conditions: dose 6.3 g ai/10 a, evaluated 21st day after application
Protocol: as §1, §3

barnyardgrass (Ec) [11] = test: Test Example 1: herbicidal effects by paddy field soil treatment; type: in vivo; conditions: 100 g of the active ingredient per 10 ares, 21st day after the application, index 0-5 of Table 47;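 further: grade of growth control; 5 = at least 90%; 4 = 70 to 90%; 3 = 50 to 70%; 2 = 30 to 50%; 1 = 10 to 30%; 0 = under 10%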
How it was run: (§4)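 Scoring of herbicidal effect came 21 days after application of 100 g active ingredient per 10 ares to flooded (3 cm) paddy-soil pots sown with barnyardgrass, monochoria and bulrush, kept in a greenhouse.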

monochoria (Mo) = test: as above; type: in vivo; conditions: 100 g of the active ingredient per 10 ares, 21st day after the application, index 0-5 of Table 47;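 further: grade of growth control; 5 = at least 90%; 4 = 70 to 90%; 3 = 50 to 70%; 2 = 30 to 50%; 1 = 10 to 30%; 0 = under 10%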
How it was run: as §4

bulrush (Sc) = test: as above; type: in vivo; conditions: 100 g of the active ingredient per 10 ares, 21st day after the application, index 0-5 of Table 47;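 further: grade of growth control; 5 = at least 90%; 4 = 70 to 90%; 3 = 50 to 70%; 2 = 30 to 50%; 1 = 10 to 30%; 0 = under 10%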
How it was run: as §4

corn (Ze) = test: Test Example 7: crop plant selectivity by upland field soil treatment (corn), phytotoxicity; type: in vivo; design: scale not given here; conditions: dose 6.3 g ai/10a, 21st day after application
Protocol: as §1, §2

cotton (Go) = test: Test Example 4: crop plant selectivity by upland field soil treatment (cotton), phytotoxicity; type: in vivo; design: scale not given here; conditions: dose 6.3 g ai/10 a, evaluated 21st day after application
Protocol: as §1, §3

pale smartweed (Po) [12] = test: Test Example 6: crop plant selectivity by upland field soil treatment (soybean), herbicidal effects; type: in vivo; design: scale not given here; conditions: dose 6.3 g ai/10a, 21st day after application
Protocol: as §1
(§5) In a plastic pot (surface area: 600 cm^2) filled with sand, soybean (Gl), Diaitaria ciliaris (Di), green foxtail (Se), Johnsongrass (So), pale smartweed (Po), slender amaranth (Am), common lambsquarters (Ch) and China jute (Ab) were sown and covered with soil. […] The plants were then cultured in a green house, and the evaluation of the herbicidal effects and phytotoxicity was conducted on the 21st day after the application in accordance with the standards as identified in Table 47. Symbol—represents “not tested”.

China jute (Ab) [13] = test: as above; type: in vivo; design: scale not given here; conditions: dose 6.3 g ai/10a, 21st day after application
Protocol: as §1, §5

green foxtail (Se) [14] = test: as above; type: in vivo; design: scale not given here; conditions: dose 6.3 g ai/10a, 21st day after application
Protocol: as §1, §5

slender amaranth (Am) [15] = test: as above; type: in vivo; design: scale not given here; conditions: dose 6.3 g ai/10a, 21st day after application
Protocol: as §1, §5

[16] = tested on: common lambsquarters (Ch); test: as above; type: in vivo; design: scale not given here; conditions: dose 6.3 g ai/10a, 21st day after application
Protocol: as §1, §5

soybean (Gl) = test: Test Example 6: crop plant selectivity by upland field soil treatment (soybean), phytotoxicity; type: in vivo; design: scale not given here; conditions: dose 6.3 g ai/10a, 21st day after application
Protocol: as §1, §5

barnyardgrass (Ec) [17] = test: Test Example 3: herbicidal effects by upland field foliage treatment; type: in vivo; design: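 grade of growth control; 5 = at least 90%; 4 = 70 to 90%; 3 = 50 to 70%; 2 = 30 to 50%; 1 = 10 to 30%; 0 = under 10%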; conditions: 100 g of the active ingredient per 10 ares, evaluated on the 14th day after treatment
How it was run: (§6)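 Sowing into sand pots with a 120 cm^2 surface, followed by soil covering and 2 weeks of greenhouse growth, preceded the leaf treatment. Scoring of weed control took place on the 14th day afterwards according to set evaluation criteria.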

pale smartweed (Po) [18] = test: as above; type: in vivo; design: scale not given here; conditions: 100 g of the active ingredient per 10 ares, evaluated on the 14th day after treatment
How it was run: as §6

rice flatsedge (Ci) [19] = test: as above; type: in vivo; design: scale not given here; conditions: 100 g of the active ingredient per 10 ares, evaluated on the 14th day after treatment
How it was run: as §6

slender amaranth (Am) [20] = test: as above; type: in vivo; design: scale not given here; conditions: 100 g of the active ingredient per 10 ares, evaluated on the 14th day after treatment
How it was run: as §6

Diaitaria ciliaris (Di) = test: as above; type: in vivo; design: scale not given here; conditions: 100 g of the active ingredient per 10 ares, evaluated on the 14th day after treatment
How it was run: as §6

[21] = tested on: common lambsquarters (Ch); test: as above; type: in vivo; design: scale not given here; conditions: 100 g of the active ingredient per 10 ares, evaluated on the 14th day after treatment
How it was run: as §6

pale smartweed (Po) [22] = test: Test Example 9: crop plant selectivity by upland field foliage treatment (wheat), herbicidal effects; type: in vivo; design: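 grade of growth control; 5 = at least 90%; 4 = 70 to 90%; 3 = 50 to 70%; 2 = 30 to 50%; 1 = 10 to 30%; 0 = under 10%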; conditions: dose 1.6 g ai/10a, 14th day after treatment
Protocol: (§7) (Test on Crop Plant Selectivity by Upland Field Foliage Treatment)
as §2, with “wheat (Tr),” for “corn (Ze), green foxtail (Se),”, “cultured in a green house for 2 weeks.” for “covered with soil.”, “14th” for “21st”, “treatment” for “application”

China jute (Ab) [23] = test: as above; type: in vivo; design: scale not given here; conditions: dose 1.6 g ai/10a, 14th day after treatment
Protocol: as §7
as §2, with “wheat (Tr),” for “corn (Ze), green foxtail (Se),”, “cultured in a green house for 2 weeks.” for “covered with soil.”, “14th” for “21st”, “treatment” for “application”

slender amaranth (Am) [24] = test: as above; type: in vivo; design: scale not given here; conditions: dose 1.6 g ai/10a, 14th day after treatment
Protocol: as §7
as §2, with “wheat (Tr),” for “corn (Ze), green foxtail (Se),”, “cultured in a green house for 2 weeks.” for “covered with soil.”, “14th” for “21st”, “treatment” for “application”

[25] = tested on: common lambsquarters (Ch); test: as above; type: in vivo; design: scale not given here; conditions: dose 1.6 g ai/10a, 14th day after treatment
Protocol: as §7
as §2, with “wheat (Tr),” for “corn (Ze), green foxtail (Se),”, “cultured in a green house for 2 weeks.” for “covered with soil.”, “14th” for “21st”, “treatment” for “application”

barnyardgrass (Ec) [26] = test: Test Example 2: herbicidal effects by upland field soil treatment; type: in vivo; conditions: 100 g of the active ingredient per 10 ares, 21st day after the application, index 0-5 of Table 47;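 further: grade of growth control; 5 = at least 90%; 4 = 70 to 90%; 3 = 50 to 70%; 2 = 30 to 50%; 1 = 10 to 30%; 0 = under 10%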
Excerpt: (§8) (Test on Herbicidal Effects by Upland Field Soil Treatment)

Digitaria ciliaris (Di) = test: as above; type: in vivo; conditions: 100 g of the active ingredient per 10 ares, 21st day after the application, index 0-5 of Table 47
Excerpt: as §8

pale smartweed (Po) [27] = test: as above; type: in vivo; conditions: 100 g of the active ingredient per 10 ares, 21st day after the application, index 0-5 of Table 47
Excerpt: as §8

rice flatsedge (Ci) [28] = test: as above; type: in vivo; conditions: 100 g of the active ingredient per 10 ares, 21st day after the application, index 0-5 of Table 47
Excerpt: as §8

slender amaranth (Am) [29] = test: as above; type: in vivo; conditions: 100 g of the active ingredient per 10 ares, 21st day after the application, index 0-5 of Table 47
Excerpt: as §8

[30] = tested on: common lambsquarters (Ch); test: as above; type: in vivo; conditions: 100 g of the active ingredient per 10 ares, 21st day after the application, index 0-5 of Table 47
Excerpt: as §8

wheat (Tr) = test: Test Example 9: crop plant selectivity by upland field foliage treatment (wheat), phytotoxicity; conditions: dose 1.6 g ai/10a, 14th day after treatment
Protocol: as §7
as §2, with “wheat (Tr),” for “corn (Ze), green foxtail (Se),”, “cultured in a green house for 2 weeks.” for “covered with soil.”, “14th” for “21st”, “treatment” for “application”

With `C#CC(CC)Oc1cc(-c2ccc(C(F)(F)F)n(C)c2=O)c(F)cc1Cl` (racemic) [1-122] the “Herbicidal effects Po” value (pale smartweed (Po) [1]) was 5, the “Herbicidal effects Ab” value (China jute (Ab) [2]) was 5 and the “Herbicidal effects Se” value (green foxtail (Se) [3]) was 5. The “Herbicidal effects Am” value (slender amaranth (Am) [4]) was 5, the “Herbicidal effects Ch” value [5] was 5 and the “Herbicidal effects Po” value (pale smartweed (Po) [6]) was 5. The “Herbicidal effects Ab” value (China jute (Ab) [7]) was 5, the “Herbicidal effects Se” value (green foxtail (Se) [8]) was 5 and the “Herbicidal effects Am” value (slender amaranth (Am) [9]) was 5. The “Herbicidal effects Ch” value [10] was 5, the “Herbicidal effects Ec” value (barnyardgrass (Ec) [11]) was 5 and the “Herbicidal effects Mo” value (monochoria (Mo)) was 5. The “Herbicidal effects Sc” value (bulrush (Sc)) was 5, the “Phytotoxicity Ze” value (corn (Ze)) was 1 and the “Phytotoxicity Go” value (cotton (Go)) was 0. The “Herbicidal effects Po” value (pale smartweed (Po) [12]) was 5, the “Herbicidal effects Ab” value (China jute (Ab) [13]) was 5 and the “Herbicidal effects Se” value (green foxtail (Se) [14]) was 5. The “Herbicidal effects Am” value (slender amaranth (Am) [15]) was 5, the “Herbicidal effects Ch” value [16] was 5 and the “Phytotoxicity Gl” value (soybean (Gl)) was 2. The “Herbicidal effects Ec” value (barnyardgrass (Ec) [17]) was 5, the “Herbicidal effects Po” value (pale smartweed (Po) [18]) was 5 and the “Herbicidal effects Ci” value (rice flatsedge (Ci) [19]) was 5. For the same molecule, the “Herbicidal effects Am” value (slender amaranth (Am) [20]) was 5, the “Herbicidal effects Di” value (Diaitaria ciliaris (Di)) was 5 and the “Herbicidal effects Ch” value [21] was 5. For the same molecule, the “Herbicidal effects Po” value (pale smartweed (Po) [22]) was 5, the “Herbicidal effects Ab” value (China jute (Ab) [23]) was 5 and the “Herbicidal effects Am” value (slender amaranth (Am) [24]) was 5. The “Herbicidal effects Ch” value [25] was 5, the “Herbicidal effects Ec” value (barnyardgrass (Ec) [26]) was 5 and the “Herbicidal effects Di” value (Digitaria ciliaris (Di)) was 5. The “Herbicidal effects Po” value (pale smartweed (Po) [27]) was 5, the “Herbicidal effects Ci” value (rice flatsedge (Ci) [28]) was 5 and the “Herbicidal effects Am” value (slender amaranth (Am) [29]) was 5. For the same molecule, the “Herbicidal effects Ch” value [30] was 5 and the “Phytotoxicity Tr” value (wheat (Tr)) was 2.
